Literature values, collected in patent US20200138710A1, “COMPOSITIONS WITH PERMEATION ENHANCERS FOR DRUG DELIVERY” (Children's Medical Center Corporation, priority 2016, published 2020).

Row | Compound | Log P
1 | CO/N=C(\C(=O)N[C@@H]1C(=O)N2C(C(=O)O)=C(CSc3nc(=O)c(=O)[nH]n3C)CS[C@H]12)c1csc(N)n1 [Ceftriaxone] | −1.47
2 | CO/N=C(\C(=O)N[C@@H]1C(=O)N2C(C(=O)O)=C(COC(N)=O)CS[C@H]12)c1ccco1 [Cefuroxime] | −0.16
3 | CC[C@H]1OC(=O)[C@H](C)[C@@H](O[C@H]2C[C@@](C)(OC)[C@@H](O)[C@H](C)O2)[C@H](C)[C@@H](O[C@@H]2O[C@H](C)C[C@H](N(C)C)[C@H]2O)[C@](C)(O)C[C@@H](C)CN(C)[C@H](C)[C@@H](O)[C@]1(C)O [Azithromycin] | 4.02
